Measured values published in patent publication US8299302B2 (priority 2007, dated 2012).
Like-named read-outs stand apart in the source and are kept apart here.

How the values were obtained:
Sphaerotheca fuliginea = assay: Sphaerotheca test (cucumber) / protective; type: in vivo; conditions: Podosphaera fuliginea, 168 h, read-out: efficacy
Experimental: (§1) To produce a suitable preparation of active compound, 1 part by weight of active compound is mixed with the stated amounts of solvent and emulsifier, and the concentrate is diluted with water to the desired concentration.
(§2) To test for protective activity, young plants are sprayed with the active compound preparation at the stated application rate. After the spray coating has dried, the plants are inoculated with an aqueous spore suspension of Sphaerotheca fuliginea. The plants are then placed in a greenhouse at about 23° C. and a relative atmospheric humidity of about 70%.
Evaluation is carried out 7 days after the inoculation. 0% means an efficacy which corresponds to that of the control, whereas an efficacy of 100% means that no infection is observed.

Botrytis cinerea = assay: Botrytis test (bean) / protective; type: in vivo; conditions: 48 h, read-out: efficacy
Experimental: as §1
To test for protective activity, young plants are sprayed with the active compound preparation at the stated application rate. After the spray coating has dried on, 2 small pieces of agar overgrown with Botrytis cinerea are placed on each leaf. The inoculated plants are then placed in a darkened chamber at about 20° C. and 100% relative atmospheric humidity.
Two days after the inoculation the size of the infected spots on the leaves is evaluated. 0% means an efficacy which corresponds to that of the control, whereas an efficacy of 100% means that no infection is observed.

Puccinia recondita = assay: Puccinia test (wheat) / protective; type: in vivo; conditions: 240 h, read-out: efficacy
Experimental: as §1
To test for protective activity, young plants are sprayed with the active compound preparation at the stated application rate. After the spray coating has dried on, the plants are sprayed with a conidia suspension of Puccinia recondita. The plants remain in an incubation cabin at 20° C. and 100% relative atmospheric humidity for 48 hours.
The plants are then placed in a greenhouse at a temperature of about 20° C. and a relative atmospheric humidity of 80% to promote the development of rust pustules.
(§3) Evaluation is carried out 10 days after the inoculation. 0% means an efficacy which corresponds to that of the control, whereas an efficacy of 100% means that no infection is observed.

Podosphaera leucotricha = assay: Podosphaera test (apple) / protective; type: in vivo; conditions: 240 h, read-out: efficacy
Experimental: as §1
as §2, with “dried on,” for “dried,”, “the apple mildew pathogen Podosphaera leucotricha.” for “Sphaerotheca fuliginea.”
as §3

Uromyces appendiculatus = assay: Uromyces test (bean) / protective; type: in vivo; conditions: 240 h, read-out: efficacy
Experimental: as §1
To test for protective activity, young plants are sprayed with the active compound preparation at the stated application rate. After the spray coating has dried on, the plants are inoculated with an aqueous spore suspension of the bean rust pathogen Uromyces appendiculatus and then remain in an incubation cabin at about 20° C. and 100% relative atmospheric humidity for 1 day.
The plants are then placed in a greenhouse at about 21° C. and a relative atmospheric humidity of about 90%.
as §3

[1] = wheat plants, protective spray, active compound concentration 1000 ppm, evaluation 10 days after inoculation
[2] = cucumber plants, protective spray, active compound concentration 100 ppm, evaluation 7 days after inoculation
[3] = bean plants, protective spray, active compound concentration 250 ppm, evaluation two days after inoculation
[4] = apple plants, protective spray, active compound concentration 100 ppm, evaluation 10 days after inoculation

Q: For CCN(C)C=Nc1cc(C)c(Oc2ccc(-c3ccccc3C(C)C)cc2)cc1C [Compound 15], which pest or weed control at 100 ppm (Sphaerotheca fuliginea) is on record?
A: ≥ 70%

Q: And the logP (logP (acidic, pH 2.3); pH 2.3)?
A: 3.06

Q: And the pest or weed control at 250 ppm (Botrytis cinerea)?
A: ≥ 70%

Q: And the pest or weed control at 1000 ppm (Puccinia recondita)?
A: ≥ 70%

Q: What about the pest or weed control at 100 ppm (Podosphaera leucotricha) of the same compound?
A: ≥ 70%

Q: For “4-[(4′-fluorobiphenyl-4-yl)oxy]-2,5-dimethyl-N-[(1E)-pyrrolidin-1-ylmethylene]aniline [Compound 30]”, which logP acidic (logP (acidic, pH 2.3); acidic) is on record?
A: 2.62

Q: With Cc1cc(Oc2ccc(-c3ccccc3C(C)C)cc2)c(C)cc1/N=C/N1CCCCC1 [Compound 25] as the compound, how does the pest or weed control at 100 ppm (Sphaerotheca fuliginea) read?
A: ≥ 70%

Q: What about the logP (logP (acidic, pH 2.3); pH 2.3) of the same compound?
A: 2.46

Q: What about the pest or weed control at 10 ppm (Uromyces appendiculatus) of the same compound?
A: ≥ 70%

Q: And the pest or weed control at 250 ppm (Botrytis cinerea)?
A: ≥ 70%

Q: And the pest or weed control at 100 ppm (Podosphaera leucotricha)?
A: ≥ 70%

Q: Which logP (logP (acidic, pH 2.3); pH 2.3, logP acidic, acidic) does the source give for CCN(C)C=Nc1cc(C)c(Oc2ccc(-c3ccccc3OCC(C)C)cc2)cc1C [Compound 29, N-ethyl-N′-{4-[(2′-isobutoxybiphenyl-4-yl)oxy]-2,5-dimethylphenyl}-N-methylimidoformamide] here?
A: 3.14

Q: For Cc1cc(Oc2ccc(-c3ccccc3Cl)cc2)c(C)cc1/N=C/N1CCCCC1 [Compound 26], which pest or weed control at 100 ppm (Sphaerotheca fuliginea) is on record?
A: ≥ 70%

Q: What about the logP (logP (acidic, pH 2.3); pH 2.3) of the same compound?
A: 2.77

Q: And the pest or weed control at 250 ppm (Botrytis cinerea)?
A: ≥ 70%

Q: And the pest or weed control at 1000 ppm (Puccinia recondita)?
A: ≥ 70%

Q: What about the pest or weed control at 100 ppm (Podosphaera leucotricha) of the same compound?
A: ≥ 70%

Q: With Cc1cc(Oc2ccc(Br)cc2)c(C)cc1N [4-(4-Bromophenoxy)-2,5-dimethylaniline] as the compound, how does the logP (logP (acidic, pH 2.3); pH 2.3, log P (pH 2.3), pH 2.3) read?
A: 2.88

Q: What does the source list for Cc1cc(Oc2ccc(C3CCCC3)cc2)c(C)cc1/N=C/N1CCCCC1C (stereo not drawn) [Compound 34, 4-(4-cyclopentylphenoxy)-2,5-dimethyl-N-[(1E)-(2-methylpiperidin-1-yl)methylene]aniline]?
A: logP (logP (acidic, pH 2.3); pH 2.3, logP acidic, acidic): 3.22; pest or weed control at 1000 ppm (Puccinia recondita; [1]): ≥ 70%

Q: Which results are given for CC(=O)c1ccccc1-c1ccc(Oc2cc(C)c(/N=C/N3CCCCC3)cc2C)cc1 [Compound 22]?
A: pest or weed control at 100 ppm (Sphaerotheca fuliginea): ≥ 70%; logP (logP (acidic, pH 2.3); pH 2.3): 3.52; pest or weed control at 250 ppm (Botrytis cinerea): ≥ 70%; pest or weed control at 100 ppm (Podosphaera leucotricha): ≥ 70%

Q: Which logP (logP (acidic, pH 2.3); pH 2.3, logP acidic, acidic) does the source give for Cc1cc(Oc2ccc(-c3ccccc3OCC(C)C)cc2)c(C)cc1/N=C/N1CCCCC1 [Compound 28, 4-[(2′-isobutoxybiphenyl-4-yl)oxy]-2,5-dimethyl-N-[(1E)-piperidin-1-ylmethylene]aniline] here?
A: 3.44

Q: With CCN(C)C=Nc1cc(C)c(Oc2ccc(-c3ccc(N(C)C)cc3)cc2)cc1C [Compound 4, N′-(4-{[4′-(dimethylamino)biphenyl-4-yl]oxy}-2,5-dimethylphenyl)-N-ethyl-N-methylimidoformamide] as the compound, how does the logP (logP (acidic, pH 2.3); pH 2.3, logP acidic, acidic) read?
A: 2.13

Q: For Cc1cc(Oc2ccc(C3CCCCC3)cc2)c(C)cc1N [4-(4-Cyclohexylphenoxy)-2,5-dimethylaniline], which logP (logP (acidic, pH 2.3); pH 2.3, log P (pH 2.3), pH 2.3) is on record?
A: 4.25

Q: For CCN(C)C=Nc1cc(C)c(Oc2ccc(-c3ccc(C(F)(F)F)cc3)cc2)cc1C [Compound 3, N′-(2,5-dimethyl-4-{[4′-(trifluoromethyl)biphenyl-4-yl]oxy}phenyl)-N-ethyl-N-methylimidoformamide], which pest or weed control at 100 ppm (Sphaerotheca fuliginea; [2]) is on record?
A: ≥ 70%

Q: And the logP (logP (acidic, pH 2.3); pH 2.3, logP acidic, acidic)?
A: 2.94

Q: What about the pest or weed control at 250 ppm (Botrytis cinerea; [3]) of the same compound?
A: ≥ 70%

Q: What about the pest or weed control at 1000 ppm (Puccinia recondita; [1]) of the same compound?
A: ≥ 70%

Q: What about the pest or weed control at 100 ppm (Podosphaera leucotricha; [4]) of the same compound?
A: ≥ 70%

Q: For CCN(C)C=Nc1cc(C)c(Oc2ccc(-c3ccc(C(C)(C)C)cc3)cc2)cc1C [Compound 7, N′-(2,5-dimethyl-4-{[4′-(tert-butyl)biphenyl-4-yl]oxy}phenyl)-N-ethyl-N-methylimidoformamide], which pest or weed control at 100 ppm (Sphaerotheca fuliginea; [2]) is on record?
A: ≥ 70%

Q: What about the logP (logP (acidic, pH 2.3); pH 2.3, logP acidic, acidic) of the same compound?
A: 3.41

Q: And the pest or weed control at 250 ppm (Botrytis cinerea; [3])?
A: ≥ 70%

Q: What about the pest or weed control at 100 ppm (Podosphaera leucotricha; [4]) of the same compound?
A: ≥ 70%

Q: For CCN(C)C=Nc1cc(C)c(Oc2ccc(-c3ccc(S(=O)(=O)CC)cc3)cc2)cc1C [Compound 2, N-ethyl-N′-(4-{[4′-(ethylsulfonyl)biphenyl-4-yl]oxy}-2,5-dimethylphenyl)-N-methylimidoformamide], which pest or weed control at 100 ppm (Sphaerotheca fuliginea; [2]) is on record?
A: ≥ 70%

Q: And the logP (logP (acidic, pH 2.3); pH 2.3, logP acidic, acidic)?
A: 2.06

Q: What about the pest or weed control at 10 ppm (Uromyces appendiculatus; bean plants, protective spray, active compound concentration 10 ppm, evaluation 10 days after inoculation) of the same compound?
A: ≥ 70%

Q: And the pest or weed control at 1000 ppm (Puccinia recondita; [1])?
A: ≥ 70%

Q: And the pest or weed control at 100 ppm (Podosphaera leucotricha; [4])?
A: ≥ 70%

Q: Which logP (logP (acidic, pH 2.3); pH 2.3) does the source give for CCCCO/N=C/c1ccc(-c2ccc(Oc3cc(C)c(N=CN(C)CC)cc3C)cc2)cc1 [Compound 10] here?
A: 3.51
